Reference: US20220169639A1 (priority 2018, published 2022)

What was measured:
[1] = tested on: HBV (HBsAg) in HBV-infected PHH; test: Cryopreserved primary human hepatocytes (PHH) HBV infection assay, extracellular HBsAg (CLIA); assay type: cell-based; conditions: Hepatitis B virus, Hepatocyte, 216 h, read-out: HBsAg IC50
Experimental: This assay is used to confirm the anti-HBV effect of the compounds in HBV PHH infection assay. Cryopreserved PHH (BioreclamationIVT, Lot YJM) was thawed at 37° C. and gently transferred into pre-warmed InVitroGRO HT medium (BioreclamationIVT, Cat. S03317). The mixture was centrifuged at 70 relative centrifugal force (RCF) for 3 minutes at RT, and the supernatant was discarded. Pre-warmed InVitroGRO CP medium (BioreclamationIVT, Cat #S03316) was added to the cell pellet to gently re-suspend cells. The cells were seeded at the density of 5.8×10^4 cells per well to collagen I coated 96-well plate (Gibco, Cat. A1142803) with the InVitroGRO CP medium. All plates were incubated at 37° C. with 5% CO2 and 85% humidity.
At 20 hours after plating, the medium was changed to PHH culture medium (Dulbecco's Modified Eagle Medium (DMEM)/F12 (1:1) (Gibco, Cat. 11320-033), 10% fetal bovine serum (Gibco Cat. 10099141), 100 U/mL penicillin, 100 μg/mL streptomycin (Gibco, Cat. 151401-122), 5 ng/mL human epidermal growth factor (Invitrogen Cat. PHG0311L), 20 ng/mL dexamethasone (Sigma, Cat. D4902) and 250 ng/mL human recombinant insulin (Gibco, Cat. 12585-014)). And the cells were incubated at 37° C. with 5% CO2 and 85% humidity for 4 hours. The medium was then changed to pre-warmed PHH culture medium containing 4% polyethylene glycol (PEG) MW8000 (Sigma, Cat. P1458-50ML) and 1% DMSO (Sigma, Cat. D2650). 5.8×10^6 genomic equivalents of HBV were added into the medium.
At 24 hours post-infection, the cells were gently washed with PBS and refreshed with PHH culture medium supplemented with 1% DMSO, and 0.25 mg/mL Matrix gel (Corning, Cat. 356237) at 200 μL per well. All plates were immediately placed in at 37° C. CO2 incubator. 24 hours later, serial dilutions of compounds made with DMSO were further diluted with the same culture medium (PHH culture medium supplemented with 1% DMSO and 0.25 mg/mL Matrix gel as described above) before they were added to the cells to reach desired final compound concentrations and 1% DMSO concentration. The medium containing the compounds were refreshed every three days.
At 9 days post-compound treatment, extracellular HBsAg level were measured with Chemiluminescence Immuno Assay (CLIA) kit (Autobio, HBsAg Quantitative CLIA). Extracellular HBV DNA was extracted by MagNA Pure 96 system (Roche) and then determined
HBsAg IC50 and HBV DNA IC50 values were derived from the dose-response curve using 4 parameter logistic curve fit method. The compounds of formula (I) have HBsAg IC50<20 μM, particularly <1 μM; and HBV DNA IC50<50 μM. Results of Cryopreserved PHH assay are given in TableBIO2.

[2] = tested on: HBeAg (surrogate marker for cccDNA) in HepDES19 cells; test: Engineered HepDES19 primary screen assay (HBeAg ELISA); assay type: cell-based, HBV; conditions: Hepatitis B virus, 120 h, HBeAg in culture supernatant, 5 days incubation, read-out: IC50 (HepDES19 primary screen assay, inhibition of extracellular HBeAg level)
Procedure, shortened: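 HepDES19 cells pre-induced by Tet withdrawal for 8 days, frozen, then seeded and dosed after 24 h with half-log compound dilutions (1% DMSO final). After 5 days at 37 °C, HBeAg measured by ELISA and viability by CCK-8; IC50 from 4-parameter logistic fit.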

O=C(O)C1CN(CCOc2cc(Br)ccc2-c2cc(=O)c3cccc(Cl)c3o2)C1 [Example 019, 1-[2-[5-bromo-2-(8-chloro-4-oxo-chromen-2-yl)phenoxy]ethyl]azetidine-3-carboxylic acid]
IC50 [1]: 7.13 µM
IC50 [2]: 0.57 µM

O=C(O)[C@H]1CCN(CCCOc2cc(C(F)(F)F)ccc2-c2cc(=O)c3cccc(Cl)c3o2)C1 [Example 014, (3S)-1-[3-[2-(8-chloro-4-oxo-chromen-2-yl)-5-(trifluoromethyl)phenoxy]propyl]pyrrolidine-3-carboxylic acid]
IC50 [1]: 5.08 µM
IC50 [2]: 0.37 µM

CN(C1CCN(CCOc2cc(Br)ccc2-c2cc(=O)c3cccc(Cl)c3o2)C1)S(C)(=O)=O (stereo not shown) [Example 076, N-[1-[2-[5-bromo-2-(8-chloro-4-oxo-chromen-2-yl)phenoxy]ethyl]pyrrolidin-3-yl]-N-methyl-methanesulfonamide]
IC50 [1]: 7.95 µM
IC50 [2]: 1.64 µM

CCOc1ccc(-c2cc(=O)c3cccc(Cl)c3o2)c(OCCCN2CC[C@H](C(=O)O)C2)c1 [Example 015, (3S)-1-[3-[2-(8-chloro-4-oxo-chromen-2-yl)-5-ethoxy-phenoxy]propyl]pyrrolidine-3-carboxylic acid]
IC50 [1]: 9.75 µM
IC50 [2]: 7.85 µM

O=C(O)[C@@H]1CCN(CCOCCOc2cc(Br)ccc2-c2cc(=O)c3cccc(Cl)c3o2)C1 [Example 047, (3R)-1-[2-[2-[5-bromo-2-(8-chloro-4-oxo-chromen-2-yl)phenoxy]ethoxy]ethyl]pyrrolidine-3-carboxylic acid]
IC50 [1]: 2.83 µM
IC50 [2]: 0.99 µM

NC(=O)CNCCOc1cc(C(F)(F)F)ccc1-c1cc(=O)c2cccc(Cl)c2o1 [Example 167, 2-[2-[2-(8-chloro-4-oxo-chromen-2-yl)-5-(trifluoromethyl)phenoxy]ethylamino]acetamide]
IC50 [1]: 7.94 µM
IC50 [2]: 3.3 µM

CC(=O)NCCCOc1cc(C(F)(F)F)ccc1-c1cc(=O)c2cccc(Cl)c2o1 [Example 098]
IC50 [1]: 6.34 µM
IC50 [2]: 4.34 µM

O=C(O)[C@H]1CCN(CC(O)COc2cc(Br)ccc2-c2cc(=O)c3cccc(Cl)c3o2)C1 (stereo partly drawn) [Example 164, (3S)-1-[3-[5-bromo-2-(8-chloro-4-oxo-chromen-2-yl)phenoxy]-2-hydroxy-propyl]pyrrolidine-3-carboxylic acid]
IC50 [1]: 9.66 µM
IC50 [2]: 2.96 µM

NC(=O)C(=O)NCCOc1cc(C(F)(F)F)ccc1-c1cc(=O)c2cccc(Cl)c2o1 [Example 146, N′-[2-[2-(8-chloro-4-oxo-chromen-2-yl)-5-(trifluoromethyl)phenoxy]ethyl]oxamide]
IC50 [1]: 7.08 µM
IC50 [2]: 0.33 µM

O=c1cc(-c2ccc(C(F)(F)F)cc2OCCCN2C[C@@H](O)[C@@H](O)C2)oc2c(Cl)cccc12 [Example 077, 8-chloro-2-[2-[3-[(3R,4S)-3,4-dihydroxypyrrolidin-1-yl]propoxy]-4-(trifluoromethyl)phenyl]chromen-4-one]
IC50 [1]: 2.18 µM
IC50 [2]: 0.05 µM

O=C(O)C(=O)N1CC[C@H](Oc2cc(C(F)(F)F)ccc2-c2cc(=O)c3cccc(Cl)c3o2)C1 [Example 126, 2-oxo-2-[(3S)-3-[2-(8-chloro-4-oxo-chromen-2-yl)-5-(trifluoromethyl)phenoxy]pyrrolidin-1-yl]acetic acid]
IC50 [1]: 4.21 µM
IC50 [2]: 0.91 µM

O=C(O)[C@@H]1CCN(CCCOc2cc(Br)ccc2-c2cc(=O)c3cccc(Cl)c3o2)C1 [Example 005, (3R)-1-[3-[5-bromo-2-(8-chloro-4-oxo-chromen-2-yl)phenoxy]propyl]pyrrolidine-3-carboxylic acid]
IC50 [1]: 8.34 µM
IC50 [2]: 8.93 µM

O=C(O)C1CC(NCCCOc2cc(C(F)(F)F)ccc2-c2cc(=O)c3cccc(Cl)c3o2)C1 (stereo not shown) [Example 006, 3-[3-[2-(8-chloro-4-oxo-chromen-2-yl)-5-(trifluoromethyl)phenoxy]propylamino]cyclobutanecarboxylic acid]
IC50 [1]: 3.82 µM
IC50 [2]: 4.68 µM

COc1cc(-c2cc(=O)c3cccc(Cl)c3o2)c(OCCCN2CC[C@@H](C(=O)O)C2)cc1Br [Example 016, (3R)-1-[3-[5-bromo-2-(8-chloro-4-oxo-chromen-2-yl)-4-methoxy-phenoxy]propyl]pyrrolidine-3-carboxylic acid]
IC50 [1]: 7.64 µM
IC50 [2]: 0.89 µM

O=C(O)C1COCCN1CCOc1cc(Br)ccc1-c1cc(=O)c2cccc(Cl)c2o1 (stereo not shown) [Example 052, 4-[2-[5-bromo-2-(8-chloro-4-oxo-chromen-2-yl)phenoxy]ethyl]morpholine-3-carboxylic acid]
IC50 [1]: 5.82 µM
IC50 [2]: 0.08 µM

O=C(O)[C@@H]1CCN(CCCOc2cc(C(F)(F)F)ccc2-c2cc(=O)c3cccc(Cl)c3o2)C1 [Example 013, (3R)-1-[3-[2-(8-chloro-4-oxo-chromen-2-yl)-5-(trifluoromethyl)phenoxy]propyl]pyrrolidine-3-carboxylic acid]
IC50 [1]: 7.35 µM
IC50 [2]: 4.23 µM

COc1cc(Cl)c2oc(-c3ccc(C(F)(F)F)cc3OCCCNC(=O)C(=O)O)cc(=O)c2c1 [Example 116]
IC50 [1]: 3.41 µM
IC50 [2]: 1.8 µM

O=C(O)C1CN(CCCOc2cc(C(F)(F)F)ccc2-c2cc(=O)c3cccc(Cl)c3o2)CCO1 (stereo not shown) [Example 018, 4-[3-[2-(8-chloro-4-oxo-chromen-2-yl)-5-(trifluoromethyl)phenoxy]propyl]morpholine-2-carboxylic acid]
IC50 [1]: 5.13 µM
IC50 [2]: 0.41 µM

CS(=O)(=O)C1CCN(CCCOc2cc(C(F)(F)F)ccc2-c2cc(=O)c3cccc(Cl)c3o2)C1 (stereo not shown) [Example 088, 8-chloro-2-[2-[3-(3-methylsulfonylpyrrolidin-1-yl)propoxy]-4-(trifluoromethyl)phenyl]chromen-4-one]
IC50 [1]: 7.8 µM
IC50 [2]: 0.27 µM

NS(=O)(=O)CCNCCCOc1cc(C(F)(F)F)ccc1-c1cc(=O)c2cccc(Cl)c2o1 [Example 080, 2-[3-[2-(8-chloro-4-oxo-chromen-2-yl)-5-(trifluoromethyl)phenoxy]propylamino]ethanesulfonamide]
IC50 [1]: 4.02 µM
IC50 [2]: 3.14 µM

O=C(O)[C@@H]1CCN(CC(O)COc2cc(Br)ccc2-c2cc(=O)c3cccc(Cl)c3o2)C1 (stereo partly drawn) [Example 165, (3R)-1-[3-[5-bromo-2-(8-chloro-4-oxo-chromen-2-yl)phenoxy]-2-hydroxy-propyl]pyrrolidine-3-carboxylic acid]
IC50 [1]: 9.98 µM
IC50 [2]: 3.19 µM

O=C(O)[C@@H]1CCN(CCOc2cc(Br)ccc2-c2cc(=O)c3c(C(F)(F)F)ccc(Cl)c3o2)C1 [Example 041, (3R)-1-[2-[5-bromo-2-[8-chloro-4-oxo-5-(trifluoromethyl)chromen-2-yl]phenoxy]ethyl]pyrrolidine-3-carboxylic acid]
IC50 [1]: 5.48 µM
IC50 [2]: 0.03 µM

CS(=O)(=O)C1CCN(CCOc2cc(Br)ccc2-c2cc(=O)c3cccc(Cl)c3o2)C1 (stereo not shown) [Example 084]
IC50 [1]: 3.48 µM
IC50 [2]: 0.59 µM

NS(=O)(=O)NCCCOc1cc(C(F)(F)F)ccc1-c1cc(=O)c2cccc(Cl)c2o1 [Example 160, 8-chloro-4-oxo-2-[2-[3-(sulfamoylamino)propoxy]-4-(trifluoromethyl)phenyl]chromene]
IC50 [1]: 10 µM
IC50 [2]: 2.43 µM

O=C(O)C(=O)NC1CC(Oc2cc(C(F)(F)F)ccc2-c2cc(=O)c3cccc(Cl)c3o2)C1 (stereo not shown) [Example 133]
IC50 [1]: 2.8 µM
IC50 [2]: 4.57 µM

O=C(O)C1CN(CCOCCOc2cc(Br)ccc2-c2cc(=O)c3cccc(Cl)c3o2)CCO1 (stereo not shown) [Example 049, 4-[2-[2-[5-bromo-2-(8-chloro-4-oxo-chromen-2-yl)phenoxy]ethoxy]ethyl]morpholine-2-carboxylic acid]
IC50 [1]: 7.81 µM
IC50 [2]: 2.81 µM
